Results on six compounds are retold here after the NIST ThermoML archive (doi:10.1016/j.fluid.2014.06.018).

For the series the following is noted: 100 kPa, Liquid, capillary rise.

Each structure is given as a SMILES string. Numbers after ± are expanded uncertainties.

Regarding `CCCCCC(=O)O` [hexanoic acid] + O, the interfacial tension reads like this: (304.65 K) 5.57 ± 0.09 mN/m; (313.65 K) 5.19 ± 0.08 mN/m; (324.15 K) 4.62 ± 0.08 mN/m; (333.15 K) 4.11 ± 0.09 mN/m; (343.15 K) 3.48 ± 0.08 mN/m.

Turning to `CCCCCCCO` [heptan-1-ol] + O, the interfacial tension (302.15 K) is 7.28 ± 0.08 mN/m; the interfacial tension (313.15 K) is reported as 7.47 ± 0.08 mN/m; the interfacial tension (323.15 K) was 7.61 ± 0.08 mN/m; the interfacial tension (333.15 K) came to 7.64 ± 0.08 mN/m; the interfacial tension (343.15 K) was 7.59 ± 0.08 mN/m.

Regarding `CCCCCC` [hexane] + O, the interfacial tension is, setting by setting: (298.15 K) 50 ± 0.6 mN/m; (302.15 K) 49.7 ± 0.6 mN/m; (315.65 K) 48.5 ± 0.6 mN/m; (322.15 K) 47.9 ± 0.6 mN/m; (333.15 K) 47 ± 0.4 mN/m; (343.15 K) 46.2 ± 0.4 mN/m.

Turning to `CCCCCCCC` [octane] + O, the interfacial tension is, setting by setting: (312.65 K) 50.5 ± 0.6 mN/m; (323.65 K) 49.7 ± 0.6 mN/m; (330.65 K) 48.8 ± 0.6 mN/m; (333.15 K) 48 ± 0.4 mN/m; (343.15 K) 47.1 ± 0.4 mN/m.

Regarding `CCCCCCCCC` [nonane] + O, the interfacial tension runs as follows: (303.15 K) 50.9 ± 0.6 mN/m; (313.15 K) 50 ± 0.6 mN/m; (324.15 K) 49.2 ± 0.6 mN/m; (333.65 K) 48.4 ± 0.4 mN/m; (343.15 K) 47.6 ± 0.4 mN/m.

`CCCCCCC` [heptane] + O: the interfacial tension (298.15 K) is recorded as 50.6 ± 0.6 mN/m; the interfacial tension (304.15 K) is listed as 50.1 ± 0.6 mN/m; the interfacial tension (314.15 K) was 49.3 ± 0.6 mN/m; the interfacial tension (324.65 K) is 48.4 ± 0.4 mN/m; the interfacial tension (335.65 K) worked out at 47.4 ± 0.4 mN/m.
